From patent US9283222B2 (priority 2006, dated 2016)

Molecular target: Recombinant Human Poly(ADP-Ribose) Polymerase (PARP), PARP-1 (Homo sapiens (Human), UniProt P09874)
Settings: read-out: PARP-1 (Ki); Table 1; text calls the values EC50s
Procedure: Nicotinamide[2,5′,8-3H]adenine dinucleotide and strepavidin SPA beads were purchased from Amersham Biosiences. […] NAD^+, histone, aminobenzamide, 3-amino benzamide and Calf Thymus DNA (dcDNA) were purchased from Sigma. Stem loop oligonucleotide containing MCAT sequence was obtained from Qiagen. The oligos were dissolved to 1 mM in annealing buffer containing 10 mM Tris HCl pH 7.5, 1 mM EDTA, and 50 mM NaCl, incubated for 5 minutes at 95° C., and annealed at 45° C. for 45 minutes. […] Biotinylated histone H1 was prepared by treating the protein with Sulfo-NHS-LC-Biotin from Pierce. The biotinylation reaction was conducted by slowly and intermittently adding 3 equivalents of 10 mM Sulfo-NHS-LC-Biotin to 100 μM Histone H1 in phosphate-buffered saline, pH 7.5, at 4° C. with gentle vortexing over 1 minute followed by subsequent 4° C. incubation for 1 hour. Streptavidin coated (FlashPlate Plus) microplates were purchased from Perkin Elmer.
PARP1 assay was conducted in PARP assay buffer containing 50 mM Tris pH 8.0, 1 mM DTT, 4 mM MgCl2. […] Auto reactions utilizing SPA bead-based detection were carried out in 100 μL volumes in white 96 well plates.

Chain of Recombinant Human Poly(ADP-Ribose) Polymerase (PARP), PARP-1 (P09874 whole entry): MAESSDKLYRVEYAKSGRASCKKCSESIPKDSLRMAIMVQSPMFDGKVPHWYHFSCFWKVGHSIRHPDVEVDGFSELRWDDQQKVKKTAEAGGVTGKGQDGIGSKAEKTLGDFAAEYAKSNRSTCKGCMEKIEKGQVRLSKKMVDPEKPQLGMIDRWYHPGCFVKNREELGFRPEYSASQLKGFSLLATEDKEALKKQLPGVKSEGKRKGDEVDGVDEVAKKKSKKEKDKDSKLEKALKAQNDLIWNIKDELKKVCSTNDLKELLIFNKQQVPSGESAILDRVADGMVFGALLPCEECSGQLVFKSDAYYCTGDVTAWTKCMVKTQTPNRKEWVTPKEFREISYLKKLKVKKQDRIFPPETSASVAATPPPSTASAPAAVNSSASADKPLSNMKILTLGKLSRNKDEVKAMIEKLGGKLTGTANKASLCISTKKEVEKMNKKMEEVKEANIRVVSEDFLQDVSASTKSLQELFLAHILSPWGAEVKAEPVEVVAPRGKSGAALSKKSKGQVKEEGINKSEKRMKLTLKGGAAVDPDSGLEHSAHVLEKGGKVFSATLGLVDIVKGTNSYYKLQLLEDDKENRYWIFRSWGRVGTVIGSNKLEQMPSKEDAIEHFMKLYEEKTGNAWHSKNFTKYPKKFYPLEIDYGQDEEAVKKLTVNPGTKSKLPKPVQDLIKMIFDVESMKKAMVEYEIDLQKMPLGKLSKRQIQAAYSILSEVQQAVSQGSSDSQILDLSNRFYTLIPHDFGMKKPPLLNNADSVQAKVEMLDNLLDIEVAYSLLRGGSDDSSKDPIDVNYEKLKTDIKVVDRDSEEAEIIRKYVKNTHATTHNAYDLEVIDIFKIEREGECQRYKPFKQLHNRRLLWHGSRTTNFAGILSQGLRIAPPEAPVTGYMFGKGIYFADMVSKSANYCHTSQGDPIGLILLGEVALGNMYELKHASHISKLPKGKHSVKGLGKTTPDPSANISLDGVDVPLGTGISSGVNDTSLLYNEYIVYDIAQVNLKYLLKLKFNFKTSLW

Structure (SMILES)	Ki
O=C(CCOc1ccccc1)Nc1cccc(Cc2n[nH]c(=O)c3c2CCCC3)c1 [Example 153, N-(3-((4-oxo-3,4,5,6,7,8-hexahydrophthalazin-1-yl)methyl)phenyl)-3-phenoxypropanamide]	6 nM
O=C(CCCc1cccs1)Nc1cccc(Cc2n[nH]c(=O)c3c2CCCC3)c1 [Example 154, N-(3-((4-oxo-3,4,5,6,7,8-hexahydrophthalazin-1-yl)methyl)phenyl)-4-thien-2-ylbutanamide]	56 nM
CC(=O)N1CCC(C(=O)Nc2cccc(Cc3n[nH]c(=O)c4c3CCCC4)c2)CC1 [Example 155, 1-acetyl-N-(3-((4-oxo-3,4,5,6,7,8-hexahydrophthalazin-1-yl)methyl)phenyl)piperidine-4-carboxamide]	126 nM
O=C(Cc1cc(F)cc(F)c1)Nc1cccc(Cc2n[nH]c(=O)c3c2CCCC3)c1 [Example 156, 2-(3,5-difluorophenyl)-N-(3-((4-oxo-3,4,5,6,7,8-hexahydrophthalazin-1-yl)methyl)phenyl)acetamide]	25 nM
CC(=O)N[C@@H](CC(C)C)C(=O)Nc1cccc(Cc2n[nH]c(=O)c3c2CCCC3)c1 [Example 157]	124 nM
CCCN(CCC)[C@@H](C)C(=O)Nc1cccc(Cc2n[nH]c(=O)c3c2CCCC3)c1 [Example 158]	1590 nM
COc1cccc(CCC(=O)Nc2cccc(Cc3n[nH]c(=O)c4c3CCCC4)c2)c1 [Example 161, 3-(3-methoxyphenyl)-N-(3-((4-oxo-3,4,5,6,7,8-hexahydrophthalazin-1-yl)methyl)phenyl)propanamide]	64 nM
O=C(Nc1cccc(Cc2n[nH]c(=O)c3c2CCCC3)c1)[C@H](O)CCc1ccccc1 [Example 164, (2R)-2-hydroxy-N-(3-((4-oxo-3,4,5,6,7,8-hexahydrophthalazin-1-yl)methyl)phenyl)-4-phenylbutanamide]	28 nM
O=C(CCCOc1ccccc1)Nc1cccc(Cc2n[nH]c(=O)c3c2CCCC3)c1 [Example 165, N-(3-((4-oxo-3,4,5,6,7,8-hexahydrophthalazin-1-yl)methyl)phenyl)-4-phenoxybutanamide]	14 nM
O=C(CCC(=O)c1cccs1)Nc1cccc(Cc2n[nH]c(=O)c3c2CCCC3)c1 [Example 166, 4-oxo-N-(3-((4-oxo-3,4,5,6,7,8-hexahydrophthalazin-1-yl)methyl)phenyl)-4-thien-2-ylbutanamide]	5 nM
Cc1ccnc(SCC(=O)Nc2cccc(Cc3n[nH]c(=O)c4c3CCCC4)c2)n1 [Example 167, 2-((4-methylpyrimidin-2-yl)thio)-N-(3-((4-oxo-3,4,5,6,7,8-hexahydrophthalazin-1-yl)methyl)phenyl)acetamide]	56 nM
O=C(CCCC(=O)Nc1cccc(Cc2n[nH]c(=O)c3c2CCCC3)c1)Nc1ccccc1 [Example 172, N-(3-((4-oxo-3,4,5,6,7,8-hexahydrophthalazin-1-yl)methyl)phenyl)-N′-phenylpentanediamide]	3 nM
COc1ccc(C(=O)CCC(=O)Nc2cccc(Cc3n[nH]c(=O)c4c3CCCC4)c2)cc1 [Example 173, 4-(4-methoxyphenyl)-4-oxo-N-(3-((4-oxo-3,4,5,6,7,8-hexahydrophthalazin-1-yl)methyl)phenyl)butanamide]	2 nM
O=C(CCS(=O)(=O)c1ccccc1)Nc1cccc(Cc2n[nH]c(=O)c3c2CCCC3)c1 [Example 175, N-(3-((4-oxo-3,4,5,6,7,8-hexahydrophthalazin-1-yl)methyl)phenyl)-3-(phenylsulfonyl)propanamide]	21 nM
O=C(Cc1cccc(Oc2ccccc2)c1)Nc1cccc(Cc2n[nH]c(=O)c3c2CCCC3)c1 [Example 176, N-(3-((4-oxo-3,4,5,6,7,8-hexahydrophthalazin-1-yl)methyl)phenyl)-2-(3-phenoxyphenyl)acetamide]	43 nM
CCCCOc1ccc(C(=O)Nc2cccc(Cc3n[nH]c(=O)c4c3CCCC4)c2)cc1 [Example 190, 4-butoxy-N-(3-((4-oxo-3,4,5,6,7,8-hexahydrophthalazin-1-yl)methyl)phenyl)benzamide]	263 nM

Results, then the molecule that gave them:

Ki	Structure (SMILES)
741 nM	CO[C@H](C(=O)Nc1cccc(Cc2n[nH]c(=O)c3c2CCCC3)c1)c1ccccc1 [Example 152, (2S)-2-methoxy-N-(3-((4-oxo-3,4,5,6,7,8-hexahydrophthalazin-1-yl)methyl)phenyl)-2-phenylacetamide]
11 nM	O=C(CNC(=O)c1ccccc1)Nc1cccc(Cc2n[nH]c(=O)c3c2CCCC3)c1 [Example 160, N-(2-oxo-2-(3-((4-oxo-3,4,5,6,7,8-hexahydrophthalazin-1-yl)methyl)phenylamino)ethyl)benzamide]
51 nM	COc1ccc(CCC(=O)Nc2cccc(Cc3n[nH]c(=O)c4c3CCCC4)c2)cc1 [Example 162, 3-(4-methoxyphenyl)-N-(3-((4-oxo-3,4,5,6,7,8-hexahydrophthalazin-1-yl)methyl)phenyl)propanamide]
35 nM	Cc1ccc(OCC(=O)Nc2cccc(Cc3n[nH]c(=O)c4c3CCCC4)c2)cc1C [Example 163, 2-(3,4-dimethylphenoxy)-N-(3-((4-oxo-3,4,5,6,7,8-hexahydrophthalazin-1-yl)methyl)phenyl)acetamide]
127 nM	O=C(CCc1ccccc1Cl)Nc1cccc(Cc2n[nH]c(=O)c3c2CCCC3)c1 [Example 168, 3-(2-chlorophenyl)-N-(3-((4-oxo-3,4,5,6,7,8-hexahydrophthalazin-1-yl)methyl)phenyl)propanamide]
99 nM	O=C(CCc1ccc(Cl)cc1)Nc1cccc(Cc2n[nH]c(=O)c3c2CCCC3)c1 [Example 169, 3-(4-chlorophenyl)-N-(3-((4-oxo-3,4,5,6,7,8-hexahydrophthalazin-1-yl)methyl)phenyl)propanamide]
1700 nM	CCC(C)C(C(=O)Nc1cccc(Cc2n[nH]c(=O)c3c2CCCC3)c1)c1ccccc1 (stereo not drawn) [Example 170, 3-methyl-N-(3-((4-oxo-3,4,5,6,7,8-hexahydrophthalazin-1-yl)methyl)phenyl)-2-phenylpentanamide]
56 nM	Cc1cc(Cl)ccc1OCC(=O)Nc1cccc(Cc2n[nH]c(=O)c3c2CCCC3)c1 [Example 171, 2-(4-chloro-2-methylphenoxy)-N-(3-((4-oxo-3,4,5,6,7,8-hexahydrophthalazin-1-yl)methyl)phenyl)acetamide]
655 nM	O=C(Nc1cccc(Cc2n[nH]c(=O)c3c2CCCC3)c1)C(c1ccccc1)c1ccccc1 [Example 174, N-(3-((4-oxo-3,4,5,6,7,8-hexahydrophthalazin-1-yl)methyl)phenyl)-2,2-diphenylacetamide]
156 nM	CCc1ccc(C(=O)Nc2cccc(Cc3n[nH]c(=O)c4c3CCCC4)c2)cc1 [Example 177, 4-ethyl-N-(3-((4-oxo-3,4,5,6,7,8-hexahydrophthalazin-1-yl)methyl)phenyl)benzamide]
462 nM	Cc1c(F)cccc1C(=O)Nc1cccc(Cc2n[nH]c(=O)c3c2CCCC3)c1 [Example 178, 3-fluoro-2-methyl-N-(3-((4-oxo-3,4,5,6,7,8-hexahydrophthalazin-1-yl)methyl)phenyl)benzamide]
238 nM	Cc1ccc(F)cc1C(=O)Nc1cccc(Cc2n[nH]c(=O)c3c2CCCC3)c1 [Example 179, 5-fluoro-2-methyl-N-(3-((4-oxo-3,4,5,6,7,8-hexahydrophthalazin-1-yl)methyl)phenyl)benzamide]
159 nM	Cc1ccc(C(=O)Nc2cccc(Cc3n[nH]c(=O)c4c3CCCC4)c2)cc1F [Example 180, 3-fluoro-4-methyl-N-(3-((4-oxo-3,4,5,6,7,8-hexahydrophthalazin-1-yl)methyl)phenyl)benzamide]
212 nM	O=C(Nc1cccc(Cc2n[nH]c(=O)c3c2CCCC3)c1)c1cccc(F)c1F [Example 181, 2,3-difluoro-N-(3-((4-oxo-3,4,5,6,7,8-hexahydrophthalazin-1-yl)methyl)phenyl)benzamide]
292 nM	O=C(Nc1cccc(Cc2n[nH]c(=O)c3c2CCCC3)c1)c1ccc(F)cc1F [Example 182, 2,4-difluoro-N-(3-((4-oxo-3,4,5,6,7,8-hexahydrophthalazin-1-yl)methyl)phenyl)benzamide]
166 nM	O=C(Nc1cccc(Cc2n[nH]c(=O)c3c2CCCC3)c1)c1cc(F)ccc1F [Example 183, 2,5-difluoro-N-(3-((4-oxo-3,4,5,6,7,8-hexahydrophthalazin-1-yl)methyl)phenyl)benzamide]
154 nM	O=C(Nc1cccc(Cc2n[nH]c(=O)c3c2CCCC3)c1)c1cc(F)cc(F)c1 [Example 184, 3,5-difluoro-N-(3-((4-oxo-3,4,5,6,7,8-hexahydrophthalazin-1-yl)methyl)phenyl)benzamide]
250 nM	CCCc1ccc(C(=O)Nc2cccc(Cc3n[nH]c(=O)c4c3CCCC4)c2)cc1 [Example 185, N-(3-((4-oxo-3,4,5,6,7,8-hexahydrophthalazin-1-yl)methyl)phenyl)-4-propylbenzamide]
160 nM	CC(C)c1ccc(C(=O)Nc2cccc(Cc3n[nH]c(=O)c4c3CCCC4)c2)cc1 [Example 186, 4-isopropyl-N-(3-((4-oxo-3,4,5,6,7,8-hexahydrophthalazin-1-yl)methyl)phenyl)benzamide]
1250 nM	CCOc1ccccc1C(=O)Nc1cccc(Cc2n[nH]c(=O)c3c2CCCC3)c1 [Example 187, 2-ethoxy-N-(3-((4-oxo-3,4,5,6,7,8-hexahydrophthalazin-1-yl)methyl)phenyl)benzamide]
185 nM	CC(C)Oc1ccc(C(=O)Nc2cccc(Cc3n[nH]c(=O)c4c3CCCC4)c2)cc1 [Example 188, 4-isopropoxy-N-(3-((4-oxo-3,4,5,6,7,8-hexahydrophthalazin-1-yl)methyl)phenyl)benzamide]
175 nM	CCN(CC)c1ccc(C(=O)Nc2cccc(Cc3n[nH]c(=O)c4c3CCCC4)c2)cc1 [Example 189, 4-(diethylamino)-N-(3-((4-oxo-3,4,5,6,7,8-hexahydrophthalazin-1-yl)methyl)phenyl)benzamide]
31 nM	O=C(Nc1cccc(Cc2n[nH]c(=O)c3c2CCCC3)c1)c1cc(C(F)(F)F)ccc1F [Example 191, 2-fluoro-N-(3-((4-oxo-3,4,5,6,7,8-hexahydrophthalazin-1-yl)methyl)phenyl)-5-(trifluoromethyl)benzamide]
